Legend:
nerve segments = assay: Dissociation culture (squash preparations) of cultured nerve segments; assay type: cell-based, rat; details: nerves cultured 2 days, 2% serum, with GM6001
Schwann cell cultures = assay: Treatment of isolated Schwann cell cultures; assay type: cell-based
[1] = system: MMP gelatinolytic activity; assay: In situ zymography of cultured nerve explants; assay type: biochemical, rat; details: nerves cultured 2 days, 2% serum, in the presence of GM6001
Procedure: In situ zymography for nerve predegeneration experiments. Cryosections (10 μm) of unfixed normal and cultured nerves were mounted on slides and overlaid with reaction buffer (50 mM Tris-HCl, 150 mM NaCl, 5 mM CaCl2, 0.2 mM sodium azide, pH 7.6) containing 20 μg/ml of intramolecularly quenched, fluorescein-labeled gelatin substrate (MOLECULAR PROBES INC., Eugene, Oreg.) (Oh et al., 1999). In the control condition, the MMP inhibitor EDTA (30 mM) was included in the reaction buffer. After incubation for 24 h at 37° C., the sections were rinsed with PBS and fixed with 4% paraformaldehyde in phosphate buffer. The sections were rinsed with water and mounted using Citifluor. Fluorescein-gelatin peptides generated by gelatinolytic activity in the tissue sections were observed and photographed by epifluorescence microscopy.
The activity of MMPs is regulated by gene transcription, proenzyme activation and by the action of tissue inhibitors of metalloproteinases. The net gelatinolytic activity in nerve segments by in situ zymography was examined. Tissue sections were overlaid with quenched, fluorescein-gelatin, which is converted to fluorescent peptides by gelatinolytic activity within tissues. Constitutive gelatinolytic activity was detected in normal nerve mostly associated with Schwann cells aligned along the endoneurial basal lamina (as shown in FIGS. 17A and 17B). […]

CNC(=O)[C@H](Cc1c[nH]c2ccccc12)NC(=O)[C@@H](CC(=O)NO)CC(C)C [GM6001] was tested, and the “cell viability of nerve segments (cell outgrowth)” value (nerve segments) was “no loss of cell viability”, the “toxicity to isolated Schwann cell cultures” value (Schwann cell cultures) was “very low toxicity” and the “gelatinolytic activity in nerve explants” value [1] was “nearly undetectable”.

Source: US7732200B2, “Materials and methods for nerve grafting, selection of nerve grafts, and in vitro nerve tissue culture” (University of Florida Research Foundation, Inc., priority 2001, dated 2010)
